Experimental data published in patent publication US10280198B2, “Therapeutic agents for reducing parathyroid hormone levels” (KAI PHARMACEUTICALS, INC., priority 2009, dated 2019).
Entries after “also recorded” stand apart in the source; their conditions may differ. Like-named read-outs stand apart in the source and are kept apart here.

What was measured:
[1] = target: T1, human calcium-sensing receptor (CaSR) (Homo sapiens, UniProt P41180); assay: In vitro cell assay in HEK-293 expressing the human calcium-sensing receptor (IP1 production); type: cell-based
T1 construct: expressed in transfected cells; host or cells: HEK 293T cells, transiently transfected (lipofectamine 2000); in some cases HEK293 cells stably transfected
T1 sequence (P41180 20-1078): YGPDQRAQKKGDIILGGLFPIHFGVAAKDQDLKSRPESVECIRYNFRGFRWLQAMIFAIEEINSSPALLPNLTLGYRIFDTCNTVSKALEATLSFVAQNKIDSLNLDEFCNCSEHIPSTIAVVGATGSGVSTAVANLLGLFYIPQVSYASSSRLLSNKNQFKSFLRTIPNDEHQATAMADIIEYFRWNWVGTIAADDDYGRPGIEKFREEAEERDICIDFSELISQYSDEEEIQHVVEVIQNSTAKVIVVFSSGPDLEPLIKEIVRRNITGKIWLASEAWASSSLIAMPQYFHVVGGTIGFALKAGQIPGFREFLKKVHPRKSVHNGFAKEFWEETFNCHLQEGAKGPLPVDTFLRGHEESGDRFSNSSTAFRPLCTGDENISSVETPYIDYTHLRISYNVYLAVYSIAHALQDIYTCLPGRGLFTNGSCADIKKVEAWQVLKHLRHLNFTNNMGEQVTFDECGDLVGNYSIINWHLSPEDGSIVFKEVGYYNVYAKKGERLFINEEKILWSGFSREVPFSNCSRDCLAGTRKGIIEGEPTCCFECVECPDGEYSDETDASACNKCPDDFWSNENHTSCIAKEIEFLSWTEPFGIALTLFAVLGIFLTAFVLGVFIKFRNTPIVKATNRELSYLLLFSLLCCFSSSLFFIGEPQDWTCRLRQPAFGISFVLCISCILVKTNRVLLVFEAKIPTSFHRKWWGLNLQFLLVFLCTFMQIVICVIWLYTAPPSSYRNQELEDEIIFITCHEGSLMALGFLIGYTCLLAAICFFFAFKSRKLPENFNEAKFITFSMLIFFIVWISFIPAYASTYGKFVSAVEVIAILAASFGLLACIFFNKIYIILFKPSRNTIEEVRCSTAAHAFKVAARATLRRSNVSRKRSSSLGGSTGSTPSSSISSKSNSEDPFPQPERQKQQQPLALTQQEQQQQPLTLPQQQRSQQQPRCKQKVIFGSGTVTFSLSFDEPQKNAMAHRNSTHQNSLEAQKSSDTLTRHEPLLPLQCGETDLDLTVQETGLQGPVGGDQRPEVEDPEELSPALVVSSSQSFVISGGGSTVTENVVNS
Method in brief: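 HEK293 cells transfected with human CaSR exposed to peptides at eight concentrations in duplicate (top 1 mM or 300 μM, ½-log dilutions) at 37 °C for 1.5 h.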

plasma PTH = assay: In vivo PTH lowering after IV bolus in isoflurane-anesthetized normal Sprague Dawley rats; design: species or system rat; settings: for PTH-lowering activity in normal rats: 0.5 mg/kg single IV administration
Method in brief: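 Peptides were given as a 0.5 mg/kg IV bolus to normal Sprague Dawley rats kept under isoflurane throughout, with saline bolus controls.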

plasma histamine = settings: rat
Description: For the in vivo evaluation of histamine release, compounds were dosed in isoflurane-anesthetized normal rats at 2 mg/kg by IV bolus (administered over less than one minute). Plasma histamine was measured 5 minutes after compound administration (Cayman histamine EIA #589651).

[2] = Table 5, IP1 production in HEK293 cells expressing human CaSR, eight concentrations in duplicate, read-out: EC50 in CaSR in vitro assay

Structure (SMILES) | EC50 ([1]; Table 1, IP1 in HEK293 cells expressing human CaSR, read-out: In vitro EC50) | EC50 [1, 2] | duration of decreased PTH (plasma PTH; 0.5 mg/kg IV bolus, normal rats, FIG. 5) | PTH-lowering activity in normal rats (plasma PTH) | % PTH reduction of baseline at 1 hour post IV admin. of 0.5 mg/kg compound (plasma PTH; Table 1, isoflurane-anesthetized normal rats, 0.5 mg/kg IV, 1 hour) | 0.5 mg/kg IV bolus % PTH AUC of saline control (plasma PTH; Table 1, normal rats, PTH at 1, 2, 3, 4 h, AUCcmpd treated/AUCsaline control*100) | 0.5 mg/kg IV bolus % PTH AUC of saline control (plasma PTH; Table 3, normal rats, AUC 1-4 h) | Histamine response in vivo Fold change from pre-dose levels 5′ post injection 2 mg/kg IV bolus (plasma histamine) | % PTH reduction of baseline at 1 hour post IV administration of 0.5 mg/kg compound (plasma PTH; Table 2, isoflurane-anesthetized normal rats, 0.5 mg/kg IV, 1 hour) | 0.5 mg/kg IV bolus % PTH AUC of saline control (plasma PTH; Table 2, normal rats, AUC 1-4 h)
CC(=O)N[C@H](CS)C(=O)N[C@H](CCCNC(=N)N)C(=O)N[C@H](CCCNC(=N)N)C(=O)N[C@H](CCCNC(=N)N)C(=O)N[C@H](CCCNC(=N)N)C(=O)N[C@H](CCCNC(=N)N)C(=O)N[C@H](CCCNC(=N)N)C(N)=O [SEQ ID NO: 6, Ac-crrrrrr-NH2] | 500 nM | 500 nM | at least four hours | below the detection limit or essentially zero | 4% | 0% | 3% | 2.7 fold |  | 
CC(=O)N[C@H](CS)C(=O)N[C@H](C)C(=O)N[C@H](CCCNC(=N)N)C(=O)N[C@H](CCCNC(=N)N)C(=O)N[C@H](CCCNC(=N)N)C(=O)N[C@H](C)C(=O)N[C@H](CCCNC(=N)N)C(N)=O [SEQ ID NO: 26, Ac-carrrar-NH2] |  | 1600 nM |  | decreased PTH blood concentration to a non-detectable level for up to 4 hours after dosing; also recorded: very active |  |  |  | 1.0 fold | 0% | 1%
